Laboratory results: US8183264B2, “Pyridine derivative substituted by heteroaryl ring, and antifungal agent comprising the same” (Eisai R&D Managment Co., Ltd., priority 2006, dated 2012)
Values after ≈ are worked out from the molar mass of the structure shown.

How the values were obtained:
[1] = test system: C. albicans CAF2-1 strain; test: Anti-Candida activity (MIC measurement); format: cell-based; conditions: CAF21STRAIN, minimum inhibitory concentration (MIC) by visual inspection, RPMI 1640, 42 to 48 hours at 35° C.
Protocol: (§1) 1. Anti-Candida Activity and Anti-Aspergillus Activity
(§2) (1) Preparation of Fungal Sample
(§3) For the C. albicans CAF2-1 strain, a fungal suspension from a standing culture for 48 hours at 30° C. in a Sabouraud dextrose liquid culture medium (SDB) was diluted with RPMI 1640 medium to adjust a fungal suspension of 1.2×10^3 cells/mL. For the A. fumigatus Tsukuba strain, −80° C. stored strain was diluted with RPMI 1640 medium to adjust to a fungal suspension of 4.5×10^3 cells/mL.
(§4) (2) Preparation of an Agent Dilution Plate
(§5) Using a U-bottomed 96-well plate, 8 samples/plate (A to H) of sample dilution solutions were prepared. On the 2nd to 12th rows were dispensed 10 μL of dimethyl sulfoxide solution. Weighed sample was dissolved in dimethyl sulfoxide to prepare a 2.5 mg/mL solution, 20 μL of this solution was added to the first row of the prepared plate, and 12 steps of two-fold step dilutions (10 μL of solution+10 μL of dimethyl sulfoxide solution) were performed on the plate. This sample dilution solution was dispensed in an amount of 1 μL into a flat-bottomed 96-well plate for MIC measurement to prepare a sample dilution plate.
(§6) (3) Inoculation of Fungal Suspension and Culture
(§7) The fungal suspension prepared in (1) was used in an amount of 99 μL/well to inoculate the flat-bottomed 96-well plate containing 1 μL/well of the test compound dilution prepared in (2), and standing culture was performed aerobically for 42 to 48 hours at 35° C.
(§8) The following representative compounds prepared in the examples were measured for anti-Candida activity and anti-Aspergillus activity by measurement method in (1).

[2] = test system: A. fumigatus Tsukuba strain; test: Anti-Aspergillus activity (MIC measurement); format: cell-based; conditions: minimum inhibitory concentration (MIC) by visual inspection, RPMI 1640, 42 to 48 hours at 35° C.
Protocol: as §1, §2, §3, §4, §5, §6, §7, §8

SMILES | MIC [1] [mg/L] | MIC [2] [mg/L]
Nc1ncccc1-c1cn(Cc2ccc(OCc3ccccc3)cc2)nn1 [Example 1, 3-(1-(4-Benzyloxy-benzyl)-1H-[1,2,3]triazol-4-yl)-pyridin-2-ylamine] | 0.05 (≈ 0.14 µM) | 0.2 (≈ 0.56 µM)
Cc1ccc(-c2cn(Cc3ccc(OCc4ccccc4)cc3)nn2)cn1 [Example 2, 5-(1-(4-Benzyloxy-benzyl)-1H-[1,2,3]triazol-4-yl)-2-methyl-pyridine] | 3.13 (≈ 8.78 µM) | 1.56 (≈ 4.38 µM)
Nc1ccc(-c2cn(Cc3ccc(OCc4ccccc4)cc3)nn2)cn1 [Example 3, 5-(1-(4-Benzyloxy-benzyl)-1H-[1,2,3]triazol-4-yl)-pyridin-2-ylamine] | 1.56 (≈ 4.36 µM) | 0.78 (≈ 2.18 µM)
Nc1ccc(-c2cn(Cc3ccc(OCc4ccccc4)cc3)nn2)c(N)n1 [Example 4, 3-(1-(4-Benzyloxy-benzyl)-1H-[1,2,3]triazol-4-yl)-pyridin-2,6-diamine] | 0.39 (≈ 1.05 µM) | 0.78 (≈ 2.09 µM)
COCc1ccc(-c2nnn(Cc3ccc(OCc4ccccc4)cc3)n2)c(N)n1 [Example 6, 3-(2-(4-Benzyloxy-benzyl)-2H-tetrazol-5-yl)-6-methoxymethyl-pyridin-2-ylamine] | 1.56 (≈ 3.88 µM) | 1.56 (≈ 3.88 µM)
Nc1ccc(-c2nnn(Cc3ccc(OCc4ccccc4)cc3)n2)c(N)n1 [Example 7, 3-(2-(4-Benzyloxy-benzyl)-2H-tetrazol-5-yl)-pyridin-2,6-diamine] | 0.39 (≈ 1.04 µM) | 1.56 (≈ 4.18 µM)
Nc1ncccc1-c1nnc(Cc2ccc(OCc3ccccc3)cc2)s1 [Example 8] | 0.78 (≈ 2.08 µM) | 1.56 (≈ 4.17 µM)
Nc1ccc(-c2nnc(Cc3ccc(OCc4ccccc4)cc3)s2)c(N)n1 [Example 10] | 3.13 (≈ 8.04 µM) | 25 (≈ 64.2 µM)
COCc1ccc(-c2nnc(Cc3ccc(OCc4ccccc4)cc3)o2)c(N)n1 [Example 11] | 6.25 (≈ 15.5 µM) | 3.13 (≈ 7.78 µM)
Nc1ncccc1-n1cc(Cc2ccc(OCc3ccccc3)cc2)nn1 [Example 12, 3-(4-(4-Benzyloxy-benzyl)-[1,2,3]triazol-1-yl)-pyridin-2-ylamine] | 0.2 (≈ 0.56 µM) | 0.2 (≈ 0.56 µM)
Nc1ncccc1-c1noc(Cc2ccc(OCc3ccccc3)cc2)n1 [Example 13, 3-(5-(4-Benzyloxy-benzyl)-[1,2,4]-oxadiazol-3-yl)-pyridin-2-ylamine] | 1.56 (≈ 4.35 µM) | 1.56 (≈ 4.35 µM)
Nc1ncccc1-c1ncn(Cc2ccc(OCc3ccccc3)cc2)n1 [Example 14, 3-(1-(4-Benzyloxy-benzyl)-1H-[1,2,4]triazol-3-yl)-pyridin-2-ylamine] | 6.25 (≈ 17.5 µM) | > 25
Nc1ncccc1-c1nnc(Cc2ccc(OCc3ccccc3)cc2)[nH]1 [Example 15, 3-(5-(4-Benzyloxy-benzyl)-4H-[1,2,4]triazol-3-yl)-pyridin-2-ylamine] | 6.25 (≈ 17.5 µM) | 3.13 (≈ 8.76 µM)
Nc1ncccc1-c1cn(Cc2ccc(Cc3ccc(Cl)o3)cc2)nn1 [Example 16, 3-(1-(4-(5-Chloro-furan-2-ylmethyl)-benzene)-1H-[1,2,3]triazol-4-yl)-pyridin-2-ylamine] | 0.05 (≈ 0.137 µM) | 0.78 (≈ 2.13 µM)
Cc1ccc(-c2cn(Cc3ccc(Cc4ccc(Cl)o4)cc3)nn2)cn1 [Example 17, 5-(1-(4-(5-Chloro-furan-2-ylmethyl)-benzyl)-1H-[1,2,3]triazol-4-yl)-2-methyl-pyridine] | 3.13 (≈ 8.58 µM) | 0.78 (≈ 2.14 µM)
COCc1ccc(-c2cn(Cc3ccc(Cc4ccc(Cl)o4)cc3)nn2)c(N)n1 [Example 19, 3-(1-(4-(5-Chloro-furan-2-ylmethyl)-benzyl)-1H-[1,2,3]triazol-4-yl)-6-methoxymethyl-pyridin-2-ylamine] | 0.39 (≈ 0.952 µM) | 3.13 (≈ 7.64 µM)
Nc1ncccc1-c1nnn(Cc2ccc(Cc3ccc(Cl)o3)cc2)n1 [Example 21, 3-(2-(4-(5-Chloro-furan-2-ylmethyl)-benzyl)-2H-tetrazol-5-yl)-pyridin-2-ylamine] | 0.39 (≈ 1.06 µM) | 0.39 (≈ 1.06 µM)
Nc1ccc(-c2nnn(Cc3ccc(Cc4ccc(Cl)o4)cc3)n2)c(N)n1 [Example 22, 3-(2-(4-(5-Chloro-furan-2-ylmethyl)-benzyl)-2H-tetrazol-5-yl)-pyridin-2,6-diamine] | 0.39 (≈ 1.02 µM) | 1.56 (≈ 4.09 µM)
